The subject of assay [1] is blood glucose level. Briefly: Hypoglycemic activity in obese diabetic mice (Table 1). Format: in vivo, male viable yellow obese-diabetic mice. Conditions: for response vs control in vivo at 25 mg/kg / response vs control in vivo at 50 mg/kg: Mus musculus, ip, intraperitoneal. The essentials: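 Male viable yellow obese-diabetic mice, six per group, dosed intraperitoneally once with compound in saline containing 2% Emulphor. Blood glucose measured by glucose oxidase before dosing and at 2 and 4 h. Values are the 2 h and 4 h glucose as % of pre-dose level.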

The test system of assay [2] is blood glucose level. Briefly: Hypoglycemic activity in normal fed rats (Table 2). Format: in vivo, male Sprague Dawley rats. Conditions: Rattus norvegicus, 167 mg/kg, oral. The essentials:
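Test formulations given by oral gavage to four normal fed rats at the chosen dose. Blood glucose measured just before dosing and at 3 and 5 h by glucose oxidase/peroxidase enzymatic method with chromogenic oxygen acceptor. Means of the 4 values taken at each time.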

Assay [3] deals with blood glucose level. Nature of the assay: Hypoglycemic activity in obese diabetic Zucker rats (Table 3). Format: in vivo, obese diabetic Zucker rat (Zucker Diabetic Fatty Rat). Conditions: 167 mg/kg, oral. On the procedure:
Male Sprague Dawley rats (Charles River Laboratories) weighing 175-200 g were used in this test system. […] The desired dose level of each test formulation was administered to four rats by oral […] at the beginning of the experiment. Blood glucose levels were determined immediately before the first dose and at 3 and 5 hours thereafter by an enzymatic procedure employing glucose oxidase and peroxidase coupled with a chromogenic oxygen acceptor. A mean was taken of the 4 values obtained before the first dose and at the 3 and 5 hour intervals.
The procedure used in this test system is the same as that described for the normal fed rat test system, above. The format of Table 3 is the same as that used in Table 2.

The test system of assay [4] is plasma glucose concentration. Briefly: Long-term hypoglycemic activity, compound in diet, ZDF rats (Table 4). It is filed as in vivo, 8 week old male Zucker Diabetic Fatty rat. The protocol: (§1) Finally, the long-term hypoglycemic activity of the compounds of the present invention was tested in yet another in vivo test system. This long-term test system entailed incorporating test compound into the test animal's diet at various concentrations (control animal's diet contained no test compound). Such diet was then fed to the test or control animals for either 14 or 21 days. Each test or control animal was then bled from the tail (200-400 μl sample of blood) at 0 (before diet started), 7, 14 and, if appropriate, 21 and 28 days after diet administration was started. Plasma samples were then obtained from each blood sample collected and the glucose concentration of such plasma samples was determined enzymatically.
(§2) Columns 4-8 provide the plasma glucose concentration at days 0, 7, 14 and, if appropriate, 21 and 28, respectively, for the animals tested. Glucose lowering was not associated with depressed diet consumption.

Assay [5] relates to plasma glucose concentration. Briefly: Long-term hypoglycemic activity, compound in diet, A^vy /a mice (Table 4). Format: in vivo, viable yellow mouse. Conditions: 0.1% in diet, Male A^vy /a (Harlan). The protocol:
as §1, §2

For assay [6], the target named is T1, Human liver cathepsin D (Homo sapiens, UniProt P07339).
T1 construct: purchased Athens Research and Technology, Athens, Ga; host or cells: human liver
Nature of the assay: Cathepsin D inhibition, fluorometric assay (Tables 5 and 6). It is filed as biochemical. The gist of the method: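 Human liver cathepsin D at 500 ng/mL in 200 mM NaOAc pH 4.5, 150 mM NaCl, incubated 30 minutes at 37° C. Reaction stopped with microsomal leucine aminopeptidase (pH 8.0), which over two hours at 37° C releases AMC from cleavage products for fluorometric reading; aminopeptidase inhibition checked with Leu-pNA.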

[7] abbreviates: 2 h, 2 hrs, read-out: Percent of Initial Blood Glucose Level After 2 hrs.
Setting [8] is: 4 h, 4 hrs, read-out: Percent of Initial Blood Glucose Level After 4 hrs.

Molecules are shown by their SMILES. Where two headings read alike, the source gives them in different places.

Here are results for one molecule from patent publication US5523314A, “Compounds useful as hypoglycemic agents and for treating Alzheimer's disease” (priority 1994, dated 1996).

T1 sequence (P07339 169-412 limits assumed): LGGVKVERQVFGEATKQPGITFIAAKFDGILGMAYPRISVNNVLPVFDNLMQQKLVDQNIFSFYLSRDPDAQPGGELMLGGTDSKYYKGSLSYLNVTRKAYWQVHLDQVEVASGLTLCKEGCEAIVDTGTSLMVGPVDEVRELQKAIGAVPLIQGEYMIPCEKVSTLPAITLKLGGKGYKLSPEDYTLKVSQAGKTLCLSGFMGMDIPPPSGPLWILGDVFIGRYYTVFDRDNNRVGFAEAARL
T1 sequence (P07339 65-161 limits assumed): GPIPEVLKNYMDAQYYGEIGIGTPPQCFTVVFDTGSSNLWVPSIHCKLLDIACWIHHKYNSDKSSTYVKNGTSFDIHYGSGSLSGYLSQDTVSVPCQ

Turning to `CCCCCOc1ccc(C=C2SC(=S)NC2=O)cc1OC` [Example 45, 5-[(3-methoxy-4-pentoxyphenyl)methylene]-2-thioxo-4-thiazolidinone], the response vs control in vivo at 25 mg/kg in assay [1] (setting [7]) turned out to be 93 ± 4%; in assay [1] (setting [8]) it was 87 ± 5%. Also, the response vs control in vivo at 50 mg/kg in assay [1] (setting [7]) amounted to 76 ± 7%; in assay [1] (setting [8]), 57 ± 3%. In addition, in assay [1] (compared to structurally similar compounds known in the art, in words), the “ability to lower blood glucose levels in mammals” value is reported as “surprising ability to lower blood glucose levels in mammals”. Also, the response vs control in vivo at 167 mg/kg in assay [2] (3 hrs, read-out: Percent of Initial Blood Glucose Level After 3 hrs.) was 61%; in assay [2] (5 hrs, read-out: Percent of Initial Blood Glucose Level After 5 hrs.), 63%. For the same molecule, in assay [3] (3 hrs), the “Percent of Initial Blood Glucose Level After 3 hrs.” value stood at 30%. Also, the “Percent of Initial Blood Glucose Level After 5 hrs.” value in assay [3] (5 hrs) is 20%. For the same molecule, the “Plasma Glucose Concentration” value is 467 mg/dL in assay [4] (0.025% in diet, day 0 (before diet started)); 451 mg/dL in assay [4] (0.025% in diet, day 7); 452 mg/dL in assay [4] (0.025% in diet, day 14); 517 mg/dL in assay [4] (0.025% in diet, day 21); 285 mg/dL in assay [4] (0.1% in diet, day 21); 438 mg/dL in assay [5] (day 0 (before diet started)). Also, the “Plasma Glucose Concentration” value in assay [5] (day 7) was found to be 338 mg/dL; in assay [5] (day 14), 315 mg/dL; in assay [5] (day 21) it was 287 mg/dL; in assay [5] (day 28), 295 mg/dL. Besides, the inhibition at 4.15 µg/mL (stock) in assay [6] (Compound Stock Concentration 4.15 μg/ml) came to 49.5%. The same molecule registered an inhibition at 8.3 µg/mL (stock) in assay [6] (Compound Stock Concentration 8.3 μg/ml) of 95%.

Broadly, the inhibition is the relative decrease from the control value, in per cent.
